Source: publication PMC12091851, “Replacing a Cereblon Ligand by a DDB1 and CUL4 Associated Factor 11 (DCAF11) Recruiter Converts a Selective Histone Deacetylase 6 PROTAC into a Pan‐Degrader” (Chemmedchem, 2025)

System: acetylated α-tubulin and histone H3
Experiment: Cellular target engagement, immunoblot of acetylated α-tubulin and histone H3 in MM.1S
Format: cell-based, human
Conditions: MM.1S cells, 10 μM, 24 h; compared to 2 and A6
Protocol: Moreover, the capability to reduce the enzymatic activity of HDACs was confirmed by a cellular target engagement assay. MM.1S cells were treated with the PROTACs and the level of acetylated HDAC substrate proteins was subsequently determined. Class I HDACs deacetylate histone H3, and thus hyperacetylation of histone H3 indicates class I HDAC inhibition. Conversely, hyperacetylation of α‐tubulin serves a marker of HDAC6 inhibition. Both hit compounds are capable of inhibiting class I and HDAC6 in a cellular environment, confirming effective target engagement in MM.1S cells (Figure 5). With regards to the HDAC6 inhibition, the trend of the enzyme inhibition data was thus confirmed. […]
Samples of the aqueous solutions were taken after 0, 24, 48, and 72 h at room temperature and the amounts of the parental compound and potential fragments were monitored by HPLC gradient A (see 3.1 General Information). […]
Afterwards, proteins were transferred with the Trans -Blot Turbo Transfer System (Catalog# 1704150, Bio-Rad) to Immobilon-FL PVDF membranes (Catalog# IPFL00005, Mill ipore Merck, Burlington, MA, USA) at 1.0 A for 30 min and treated with 5% milk-powder solution for 1 h at room temperature under slight agitation. […] The ChemiDoc XRS+ System (Catalog# 1708265 , Bio-Rad) was used for detection and Image Lab Software 6.1 (Bio-Rad) for quantification. […]

O=C(CCCCCCNC(=O)c1ccc(NC(=O)CCCCCCCCCCCN(C(=O)CCl)C(C(=O)NCc2ccccc2)c2ccc(Cl)c(Cl)c2)cc1)NO (stereo not shown) [Compound 1j] was tested, and the “histone H3 hyperacetylation” value was “more pronounced”.
